Experimental data from ChEMBL document CHEMBL1201862, “PubChem BioAssay data set” (2004).
Active and inactive are the calls of the source.

How the values were obtained:
[1] = tested on: Vero; experiment: viability of Vero cells under compound – cytotoxicity control for flavivirus capping enzyme inhibitors (AID 588742); type: functional; conditions: Chlorocebus sabaeus
[2] = blockers of HIV-1 ZM109 envelope-driven cell-cell fusion – HeLa effector, CEM target cells, luciferase, cherry-pick, dose response (AID 652058); type: functional, cell-based;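 further: luciferase signal from HIV-1 Env mediated cell-cell fusion of effector and target cells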
[3] = off-target signal loss in HeLa-CEM21 co-culture – HeLa F-luc CTL cells, cherry-picked, counter-screen for HIV-1 Env fusion inhibitor project, dose response (AID 652040); type: functional, cell-based;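 further: potency for signal decrease marking cytotoxic or nonspecific inhibition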
[4] = viability of uninfected HEp-2 cells – cell-based, HTS, cytotoxicity control for RSV inhibitor project, dose response (AID 2410); type: functional; conditions: human respiratory syncytial virus
[5] = blockers of HIV-1 envelope-mediated cell-cell fusion – cherry-pick, dose response (AID 652057); type: functional, cell-based
[6] = HIV-1 AD8 envelope cell-cell fusion blockers – cherry-pick, dose response (AID 652062); type: functional, cell-based;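 further: luciferase signal from cell-cell fusion driven by HIV-1 clade B AD8 Env; potency is for inhibitors of fusion seen as a drop in luminescence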
[7] = cells
[8] = target: T1, Voltage-gated N-type calcium channel alpha-1B subunit/Amyloid beta A4 precursor protein-binding family A member 1 (Homo sapiens, UniProt Q00975+Q02410); type: protein assay
[9] = target: T1, Voltage-gated N-type calcium channel alpha-1B subunit/Amyloid beta A4 precursor protein-binding family A member 1; type: protein assay; remark: listed apart in the source
[10] = target: T2, Endoribonuclease toxin MazF (Escherichia coli K-12, UniProt P0AE70); experiment: activation of MazEF endoribonuclease cleavage – biochemical, fluorescence, single-stranded RNA substrate, uHTS hits, dose response (AID 588481); type: functional
T2 sequence (P0AE70 whole entry): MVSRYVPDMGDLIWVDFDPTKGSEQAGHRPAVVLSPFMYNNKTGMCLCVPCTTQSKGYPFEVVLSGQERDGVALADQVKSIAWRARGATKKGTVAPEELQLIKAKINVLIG

[11] = target: T2, Endoribonuclease toxin MazF; experiment: substrate-only fluorescence increase artefacts – biochemical, single-stranded RNase substrate, counter-screen for MazEF activator project, dose response (AID 588502); type: functional
[12] = target: Genome polyprotein (dengue virus type 2, UniProt P29990); experiment: flavivirus cap methylation enzyme inhibition – biochemical, confirmation dose response, primary screen (AID 588689); type: functional
[13] = target: Cytochrome P450 3A4 (Homo sapiens, UniProt P08684);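 further: CYP3A4 tested as one member of a cytochrome P450 panel screen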
Sequence of Cytochrome P450 3A4 (P08684 whole entry): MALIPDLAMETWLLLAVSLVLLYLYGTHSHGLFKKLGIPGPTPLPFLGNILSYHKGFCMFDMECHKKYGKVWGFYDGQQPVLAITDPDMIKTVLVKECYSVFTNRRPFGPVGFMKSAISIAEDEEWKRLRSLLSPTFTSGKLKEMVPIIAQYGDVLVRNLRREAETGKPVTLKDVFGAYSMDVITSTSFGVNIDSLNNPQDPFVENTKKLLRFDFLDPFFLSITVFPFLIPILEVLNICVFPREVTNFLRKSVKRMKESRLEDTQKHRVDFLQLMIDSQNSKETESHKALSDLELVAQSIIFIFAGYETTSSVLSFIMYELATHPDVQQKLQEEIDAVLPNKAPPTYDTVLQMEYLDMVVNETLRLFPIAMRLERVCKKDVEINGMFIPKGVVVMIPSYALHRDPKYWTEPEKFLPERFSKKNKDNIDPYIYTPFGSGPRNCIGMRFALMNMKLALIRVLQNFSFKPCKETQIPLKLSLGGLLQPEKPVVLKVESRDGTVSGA

[14] = target: T3, Microphthalmia-associated transcription factor (Homo sapiens, UniProt O75030); experiment: reducers of TRPM1 reporter luminescence, concentration series – cell-based, SK-MEL-5, cherry-picked, set 3, MITF inhibitor project, dose response (AID 493073); type: functional;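 further: SK-MEL-5 melanoma cells with luciferase driven by the MITF target TRPM1 promoter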
T3 sequence (O75030 whole entry): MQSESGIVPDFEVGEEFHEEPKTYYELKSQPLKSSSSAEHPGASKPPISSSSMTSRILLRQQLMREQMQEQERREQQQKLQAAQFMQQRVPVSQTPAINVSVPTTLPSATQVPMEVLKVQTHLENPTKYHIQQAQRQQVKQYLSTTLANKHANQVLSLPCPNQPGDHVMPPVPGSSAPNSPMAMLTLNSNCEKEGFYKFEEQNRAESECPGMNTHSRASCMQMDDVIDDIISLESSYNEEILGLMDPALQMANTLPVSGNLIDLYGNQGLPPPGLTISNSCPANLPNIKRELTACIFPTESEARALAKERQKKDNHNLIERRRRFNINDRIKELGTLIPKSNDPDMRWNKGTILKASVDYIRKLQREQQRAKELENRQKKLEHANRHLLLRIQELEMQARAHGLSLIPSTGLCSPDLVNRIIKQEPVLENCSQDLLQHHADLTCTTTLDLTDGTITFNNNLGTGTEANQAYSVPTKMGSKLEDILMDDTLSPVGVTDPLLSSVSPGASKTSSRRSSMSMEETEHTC

[15] = target: T4, Calpain-2 catalytic subunit (Sus scrofa, UniProt P43367); experiment: m-calpain protease blockers, concentration series – biochemical, fluorogenic peptide substrate, dose response (AID 1420); type: functional
T4 sequence (P43367 whole entry): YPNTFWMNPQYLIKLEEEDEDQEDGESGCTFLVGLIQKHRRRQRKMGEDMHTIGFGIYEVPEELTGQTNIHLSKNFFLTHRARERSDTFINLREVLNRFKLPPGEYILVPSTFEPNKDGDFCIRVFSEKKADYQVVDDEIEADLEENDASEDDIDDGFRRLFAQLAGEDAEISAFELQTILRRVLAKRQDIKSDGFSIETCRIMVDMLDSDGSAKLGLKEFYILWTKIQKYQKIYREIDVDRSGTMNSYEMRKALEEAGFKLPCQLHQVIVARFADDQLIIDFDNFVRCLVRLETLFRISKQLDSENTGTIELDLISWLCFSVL

[16] = target: Heat shock protein HSP 90-alpha (Homo sapiens, UniProt P07900); type: functional, organism-based
[17] = target: T5, Streptokinase A (Streptococcus pyogenes serotype M1, UniProt P10520); experiment: viability-normalized secreted streptokinase activity reduction – plasminogen activation absorbance, OD405, dose response (AID 1914); type: functional, Streptococcus pyogenes M1 GAS;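 further: secreted streptokinase activity via plasminogen activation per viability signal from cell pellet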
T5 sequence (P10520 whole entry): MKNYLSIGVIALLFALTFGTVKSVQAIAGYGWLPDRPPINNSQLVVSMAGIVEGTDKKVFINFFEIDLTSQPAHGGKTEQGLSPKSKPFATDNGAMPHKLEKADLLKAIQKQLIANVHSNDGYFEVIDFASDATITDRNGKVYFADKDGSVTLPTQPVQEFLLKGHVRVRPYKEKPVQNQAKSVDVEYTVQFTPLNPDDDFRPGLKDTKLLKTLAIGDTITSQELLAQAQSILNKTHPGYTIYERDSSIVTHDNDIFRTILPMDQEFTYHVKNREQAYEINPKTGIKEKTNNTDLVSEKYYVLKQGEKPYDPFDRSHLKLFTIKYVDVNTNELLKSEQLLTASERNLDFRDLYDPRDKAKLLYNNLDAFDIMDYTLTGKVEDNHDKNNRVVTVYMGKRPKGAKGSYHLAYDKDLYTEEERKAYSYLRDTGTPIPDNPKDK

[18] = tested on: Streptococcus sp. 'group A'; experiment: Streptococcus pyogenes SK(-)GAS viability under kanamycin – luminescence, BacTiterGlo, confirmation, counter-screen for streptokinase expression inhibitor project, dose response (AID 1900); type: functional, organism-based
[19] = tested on: INS1; experiment: INS-1E survival protection against cytokine death – cell-based, luminescence, retest, dose response (AID 449756); type: functional; conditions: Rattus norvegicus;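 further: cell death triggered by IL-1 beta plus TNF-alpha plus IFN-gamma mixture; protective hits raise ATP signal compared with cytokine alone wells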
[20] = tested on: Streptococcus; experiment: GAS UMAA2166 growth inhibition – luminescence, BacTiterGlo, counter-screen for streptokinase expression inhibitor project, dose response (AID 1915); type: functional, organism-based;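 further: potency for reduction of bacterial viability or growth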
[21] = viability loss in HEK293 cells – cell-based, plate reader, cherry-picked samples, cytotoxicity control, dose response (AID 743446); type: functional
[22] = blockade of melanocortin 4 receptor signaling – cell-based, plate reader, cherry pick, counter-screen for LGR2 antagonist project, dose response (AID 743444); type: functional;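 further: transfected HEK 293 cells stimulated with alpha-MSH peptide; potency of inhibitors of the alpha-MSH evoked signal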
[23] = blockers of bursicon-stimulated LGR2 cAMP reporter – cell-based, HEK293, CRE-luciferase reporter, cherry pick, set 2, dose response (AID 743343); type: functional;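 further: transfected cells were stimulated with diluted bursicon conditioned medium after compound addition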
[24] = A549 cell cytotoxicity, dose response, cytotoxicity control, plate reader, cherry-pick, antagonist series (AID 743412); type: functional, cell-based
[25] = toxicity toward HepG2 liver cells – cell-based, plate reader, cherry-pick, antagonist series, cytotoxicity control, dose response (AID 743416); type: functional
[26] = target: Cytochrome P450 2C19 (Homo sapiens, UniProt P33261); experiment: Cytochrome panel assay with activity outcomes. Panel member name: p450-cyp2c19 Compounds with AC50 equal or less than 10 uM are considered active; type: functional; conditions: read-out: AC50
Sequence of Cytochrome P450 2C19 (P33261 whole entry): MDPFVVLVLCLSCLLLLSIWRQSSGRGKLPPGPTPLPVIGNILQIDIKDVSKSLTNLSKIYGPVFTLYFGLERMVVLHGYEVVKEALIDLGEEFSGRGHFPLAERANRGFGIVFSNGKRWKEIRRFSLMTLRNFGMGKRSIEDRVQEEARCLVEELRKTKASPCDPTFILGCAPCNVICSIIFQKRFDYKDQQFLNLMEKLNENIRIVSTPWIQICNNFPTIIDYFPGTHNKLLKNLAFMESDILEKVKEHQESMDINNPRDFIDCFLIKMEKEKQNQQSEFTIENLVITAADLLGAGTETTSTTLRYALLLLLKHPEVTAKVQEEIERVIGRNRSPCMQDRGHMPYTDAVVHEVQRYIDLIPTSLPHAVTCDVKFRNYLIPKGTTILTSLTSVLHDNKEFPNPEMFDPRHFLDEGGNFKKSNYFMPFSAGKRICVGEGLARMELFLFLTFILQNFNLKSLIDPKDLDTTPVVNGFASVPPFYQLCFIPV

[27] = target: Glyceraldehyde-3-phosphate dehydrogenase (Homo sapiens, UniProt P04406)
Sequence of Glyceraldehyde-3-phosphate dehydrogenase (P04406 whole entry): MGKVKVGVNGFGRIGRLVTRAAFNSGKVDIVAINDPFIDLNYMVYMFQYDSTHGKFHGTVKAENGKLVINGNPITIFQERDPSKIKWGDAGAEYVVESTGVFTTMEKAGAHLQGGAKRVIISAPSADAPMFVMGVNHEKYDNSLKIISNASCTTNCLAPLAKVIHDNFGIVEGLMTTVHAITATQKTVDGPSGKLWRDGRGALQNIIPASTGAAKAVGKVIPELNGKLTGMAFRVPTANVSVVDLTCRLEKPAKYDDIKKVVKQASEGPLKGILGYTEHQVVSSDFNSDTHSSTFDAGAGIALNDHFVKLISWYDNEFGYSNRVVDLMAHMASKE

[28] = target: T6, Alkaline phosphatase, tissue-nonspecific isozyme (Homo sapiens, UniProt P05186); experiment: potency against alkaline phosphatase TNAP – biochemical, luminescent, dose response, SAR follow-up (AID 1056)
T6 sequence (P05186 whole entry): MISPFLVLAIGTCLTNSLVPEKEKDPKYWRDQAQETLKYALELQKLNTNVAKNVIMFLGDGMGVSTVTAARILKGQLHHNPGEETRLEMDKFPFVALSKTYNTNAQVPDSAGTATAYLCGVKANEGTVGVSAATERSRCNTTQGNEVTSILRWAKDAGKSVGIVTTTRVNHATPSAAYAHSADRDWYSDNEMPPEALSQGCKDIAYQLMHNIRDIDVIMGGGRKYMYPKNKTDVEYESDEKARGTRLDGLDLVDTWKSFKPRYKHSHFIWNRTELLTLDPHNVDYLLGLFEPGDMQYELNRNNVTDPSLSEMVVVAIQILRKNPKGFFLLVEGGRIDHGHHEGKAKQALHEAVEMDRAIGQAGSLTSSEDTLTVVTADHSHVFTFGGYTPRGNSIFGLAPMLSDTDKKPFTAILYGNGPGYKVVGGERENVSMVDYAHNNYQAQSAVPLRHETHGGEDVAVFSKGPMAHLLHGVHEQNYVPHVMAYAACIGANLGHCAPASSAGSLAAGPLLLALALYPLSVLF

[29] = target: Large T antigen (Simian virus 40, UniProt P03070); type: functional, Betapolyomavirus macacae;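 further: Confirmatory-stage PubChem screen for compounds that inhibit SV40 T antigen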
Sequence of Large T antigen (P03070 whole entry): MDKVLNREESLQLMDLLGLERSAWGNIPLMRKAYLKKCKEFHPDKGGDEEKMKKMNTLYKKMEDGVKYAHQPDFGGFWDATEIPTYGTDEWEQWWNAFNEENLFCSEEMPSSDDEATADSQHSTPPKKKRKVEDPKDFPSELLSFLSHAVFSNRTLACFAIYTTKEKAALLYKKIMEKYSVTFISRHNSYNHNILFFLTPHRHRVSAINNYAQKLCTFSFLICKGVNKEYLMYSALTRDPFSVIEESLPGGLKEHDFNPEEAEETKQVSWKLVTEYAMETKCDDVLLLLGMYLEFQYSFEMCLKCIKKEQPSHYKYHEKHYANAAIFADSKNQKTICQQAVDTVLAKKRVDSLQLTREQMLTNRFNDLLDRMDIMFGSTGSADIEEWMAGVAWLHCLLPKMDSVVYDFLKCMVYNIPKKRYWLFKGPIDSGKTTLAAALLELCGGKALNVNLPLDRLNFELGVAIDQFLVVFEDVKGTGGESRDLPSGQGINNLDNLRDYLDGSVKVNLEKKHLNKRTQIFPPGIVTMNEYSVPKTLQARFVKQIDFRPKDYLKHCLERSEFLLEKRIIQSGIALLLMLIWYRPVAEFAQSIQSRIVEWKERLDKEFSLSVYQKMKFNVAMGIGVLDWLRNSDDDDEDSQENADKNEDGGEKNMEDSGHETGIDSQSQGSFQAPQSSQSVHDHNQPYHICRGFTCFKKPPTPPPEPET

[30] = viability loss in THP-1 monocytes – THP-1 cells, cytotoxicity control for Vif-APOBEC3G degradation inhibitor project, dose response (AID 1117359); type: functional; conditions: THP-1
[31] = target: T7, Fatty acid synthase (Homo sapiens, UniProt P49327); experiment: inhibition of human FAS-TE enzyme activity – biochemical, kinetic fluorescence intensity, dose response (AID 624326); type: functional;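 further: rate of fluorescence rise from hydrolysis of a fluorogenic O-methyl fluorescein ester substrate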
T7 sequence (P49327 whole entry): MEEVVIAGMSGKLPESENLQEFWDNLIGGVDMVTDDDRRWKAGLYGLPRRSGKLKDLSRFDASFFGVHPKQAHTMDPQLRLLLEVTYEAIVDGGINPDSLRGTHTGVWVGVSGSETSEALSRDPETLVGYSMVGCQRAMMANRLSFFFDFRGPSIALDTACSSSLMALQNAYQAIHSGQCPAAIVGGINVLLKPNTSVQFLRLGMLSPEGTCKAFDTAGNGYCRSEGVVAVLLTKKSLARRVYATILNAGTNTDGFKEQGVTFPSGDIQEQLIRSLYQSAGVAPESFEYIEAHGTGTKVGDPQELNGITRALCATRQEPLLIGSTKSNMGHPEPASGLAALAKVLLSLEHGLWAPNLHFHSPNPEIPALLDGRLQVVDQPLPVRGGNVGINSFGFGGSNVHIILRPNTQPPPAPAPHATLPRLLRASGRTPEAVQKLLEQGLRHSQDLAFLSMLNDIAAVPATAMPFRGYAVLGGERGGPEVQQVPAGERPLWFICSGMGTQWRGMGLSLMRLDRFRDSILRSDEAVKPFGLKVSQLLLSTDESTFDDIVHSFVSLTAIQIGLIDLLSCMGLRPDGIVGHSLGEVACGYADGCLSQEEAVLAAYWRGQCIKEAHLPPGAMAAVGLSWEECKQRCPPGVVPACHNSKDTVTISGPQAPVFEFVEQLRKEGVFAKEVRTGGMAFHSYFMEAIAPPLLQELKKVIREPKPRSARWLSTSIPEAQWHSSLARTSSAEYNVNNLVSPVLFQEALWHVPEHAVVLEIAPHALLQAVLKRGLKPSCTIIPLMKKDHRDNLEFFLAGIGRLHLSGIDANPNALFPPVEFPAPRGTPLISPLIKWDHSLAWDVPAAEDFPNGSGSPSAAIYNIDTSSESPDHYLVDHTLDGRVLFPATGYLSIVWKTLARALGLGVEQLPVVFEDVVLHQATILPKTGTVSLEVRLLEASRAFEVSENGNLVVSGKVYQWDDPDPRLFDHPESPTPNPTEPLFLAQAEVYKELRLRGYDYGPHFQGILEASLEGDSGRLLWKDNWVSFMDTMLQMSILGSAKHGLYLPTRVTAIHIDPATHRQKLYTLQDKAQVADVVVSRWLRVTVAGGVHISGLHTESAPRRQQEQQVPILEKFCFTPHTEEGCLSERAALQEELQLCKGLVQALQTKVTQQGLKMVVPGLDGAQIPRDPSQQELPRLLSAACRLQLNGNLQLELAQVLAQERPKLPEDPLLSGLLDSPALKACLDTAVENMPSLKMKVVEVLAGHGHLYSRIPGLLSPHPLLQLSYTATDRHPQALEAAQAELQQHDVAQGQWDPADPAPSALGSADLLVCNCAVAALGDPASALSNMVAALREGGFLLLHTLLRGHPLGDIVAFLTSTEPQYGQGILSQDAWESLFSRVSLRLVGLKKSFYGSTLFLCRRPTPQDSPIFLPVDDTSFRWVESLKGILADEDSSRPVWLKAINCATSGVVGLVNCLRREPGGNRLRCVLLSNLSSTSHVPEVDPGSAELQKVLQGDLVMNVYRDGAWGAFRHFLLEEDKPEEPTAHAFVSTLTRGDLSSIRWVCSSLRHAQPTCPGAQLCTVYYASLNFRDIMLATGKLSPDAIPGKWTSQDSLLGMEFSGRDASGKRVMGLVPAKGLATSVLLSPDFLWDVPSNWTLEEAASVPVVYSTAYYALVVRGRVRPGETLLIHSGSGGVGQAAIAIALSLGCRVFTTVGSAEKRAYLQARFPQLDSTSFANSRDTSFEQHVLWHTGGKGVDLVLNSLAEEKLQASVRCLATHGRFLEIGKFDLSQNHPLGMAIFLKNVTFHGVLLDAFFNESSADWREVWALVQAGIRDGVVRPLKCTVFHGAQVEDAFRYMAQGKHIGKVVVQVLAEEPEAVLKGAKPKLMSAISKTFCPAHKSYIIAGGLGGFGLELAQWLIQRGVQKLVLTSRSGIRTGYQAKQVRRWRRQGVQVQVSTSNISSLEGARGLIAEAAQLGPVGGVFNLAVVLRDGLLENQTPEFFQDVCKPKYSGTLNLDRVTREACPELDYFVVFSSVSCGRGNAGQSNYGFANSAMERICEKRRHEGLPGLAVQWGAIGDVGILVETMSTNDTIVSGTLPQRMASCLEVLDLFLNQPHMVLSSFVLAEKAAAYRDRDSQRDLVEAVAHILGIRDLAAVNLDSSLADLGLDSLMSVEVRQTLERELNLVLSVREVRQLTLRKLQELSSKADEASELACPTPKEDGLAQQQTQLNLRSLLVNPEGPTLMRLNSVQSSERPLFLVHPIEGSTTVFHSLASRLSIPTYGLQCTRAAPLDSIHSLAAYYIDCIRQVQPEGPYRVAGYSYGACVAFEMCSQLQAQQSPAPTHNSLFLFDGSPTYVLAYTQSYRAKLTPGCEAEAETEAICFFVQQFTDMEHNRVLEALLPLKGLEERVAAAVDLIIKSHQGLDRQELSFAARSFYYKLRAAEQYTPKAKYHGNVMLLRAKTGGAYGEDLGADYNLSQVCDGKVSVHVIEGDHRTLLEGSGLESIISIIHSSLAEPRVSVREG

[32] = target: T7, Fatty acid synthase; experiment: inhibition of human FAS-TE enzyme activity – biochemical, endpoint fluorescence intensity, uHTS hits, dose response (AID 624327); type: functional;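 further: fluorescence from hydrolysis of an O-methyl fluorescein acyl ester substrate by the enzyme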

Compound: O=C1C(NS(=O)(=O)c2cccs2)=C(N2CCN(c3cccc(Cl)c3)CC2)C(=O)c2ccccc21
- CC50 [1]: > 40 µM (active)

Compound: O=C(NCc1ccco1)c1ccc(Cn2c(=O)c3sccc3n(Cc3cccc(F)c3)c2=O)cc1
- AC50 [2]: 0.58 µM (active)
- AC50 [3]: 0.348 µM (active)
- CC50 [4]: > 12.5 µM (active)
- AC50 [5]: < 0.26 µM (active)
- AC50 [6]: 2.36 µM (active)
- IC50 [7]: 5.66 µM (active)

Compound: Cc1c(Cc2ccccc2)sc(NC(=O)c2ccco2)c1C(N)=O
- IC50 [8]: > 50 µM (inactive)
- IC50 [9]: 9.09 µM (active)

Compound: O=C(c1ccco1)N1CCN(C(=O)C2CCCc3c2[nH]c2ccc(Cl)cc32)CC1 (stereo not given)
- CC50 [4]: 16.2 µM (active)
- IC50 [7]: 16 µM (active)

Compound: O=c1oc(/C=C/c2ccccc2)nc2sc3c(c12)CCC3
- EC50 [10]: > 99 µM (inactive)
- EC50 [11]: > 99 µM (inactive)
- CC50 [4]: 28.4 µM (active)
- IC50 [7]: 39.6 µM (active)

Compound: CCOc1ccc(-n2c(=S)sc3c(O)nc(SCC(=O)C(C)(C)C)nc32)cc1
- CC50 [1]: > 40 µM (active)
- IC50 [12]: 54.2 µM (active)

Compound: COc1ccc(-c2cc(C(=O)N/N=C/c3ccc4c(c3)OCO4)c3ccccc3n2)c(OC)c1
- CC50 [4]: 44.4 µM (active)
- IC50 [7]: 27.9 µM (active)

Compound: O=C(Oc1ccccc1)N1CCC2(CCN(Cc3nccs3)CC2)CC1
- AC50 [13]: inconclusive

Compound: COc1cccc(-c2csc3ncnc(Sc4nnnn4C)c23)c1
- AC50 [14]: 25 µM (active)

Compound: Cc1ccc2c(CC(=O)Nc3cccc(S(=O)(=O)N4CCOCC4)c3)coc2c1
- IC50 [15]: 25.9 µM (not active)

Compound: Cc1nc(SCC(=O)Nc2ccccc2)c2oc3ccccc3c2n1
- IC50 [15]: > 50 µM (not active)

Compound: O=C(/C=C/c1cccc([N+](=O)[O-])c1)c1ccc([N+](=O)[O-])o1
- AC50 [16]: 0.557 µM (active)
- EC50 [17]: > 150 µM (not active)
- EC50 [18]: 2.33 µM (active)
- AC50 [19]: 2.18 µM (active)
- CC50 [1]: 30.7 µM (active)
- EC50 [20]: 8.2 µM (active)

Compound: Cc1ccc(-c2cc3onc(-c4ccccc4)c3c(=O)n2C)cc1
- AC50 [14]: 9.76 µM (active)
- AC50 [21]: 43.6 µM (active)
- AC50 [22]: 3.13 µM (active)
- AC50 [23]: 1.67 µM (active)
- AC50 [24]: > 52 µM (inactive)
- AC50 [25]: 27.6 µM (active)

Compound: O=C(c1ccco1)N1CCC2(CC1)CN(c1ncccn1)C2
- AC50 [26]: 25.1 µM (inconclusive)
- AC50 [13]: inconclusive

Compound: O=C1c2c(Cl)c(Cl)c(Cl)c(Cl)c2C(=O)N1c1nnc[nH]1
- IC50 [27]: 5.3 µM (active)
- IC50 [28]: > 100 µM (inactive)

Compound: CCN1C(=O)/C(=C\c2ccc([N+](=O)[O-])s2)C(=O)NC1=S
- IC50 [29]: 91.6 µM (active)
- CC50 [30]: > 40 µM (active)

Compound: CC(=O)[C@H]1CC[C@H]2[C@@H]3C=CC4=CC(=O)CC[C@@]4(C)[C@H]3CC[C@]12C
- AC50 [13]: inconclusive

Compound: C=CCOc1ccc(CNC(C)(C)CO)cc1OC.Cl
- AC50 [13]: inconclusive

Compound: Cc1ccc([N+](=O)[O-])cc1NC(=O)C(Sc1ccccc1)c1ccccc1 (stereo not given)
- IC50 [31]: 1.73 µM (active)
- IC50 [32]: 2.24 µM (active)
- IC50 [15]: > 50 µM (not active)

Compound: O=S(=O)(/C=C/c1ccccc1)N1CCC(c2nc(O)c3nnn(Cc4ccc(F)cc4)c3n2)CC1
- CC50 [4]: 19.1 µM (active)
- IC50 [7]: 12 µM (active)

Compound: COC(=O)c1cc(-c2ccc([N+](=O)[O-])cc2)[nH]n1
- IC50 [27]: > 100 µM (not active)
- IC50 [28]: > 100 µM (inactive)
